{
  "source": "patent US9796662B2",
  "about": "(priority 2010, dated 2017)",
  "data": [
    {"smiles": "C=CCCCCCCCC(=O)OCC[N+](C)(C)C", "note": "[C10-7, C10 DMEA Ester Quat]", "values": [
      {"measurement": "Emulsion stability, mL separation, 1 h, Adjuvant", "result": 0, "unit": "mL"},
      {"measurement": "Emulsion stability, mL separation, 1 h, Anionic", "result": 0, "unit": "mL"},
      {"measurement": "Emulsion stability, mL separation, 1 h, Nonionic", "result": 0, "unit": "mL"},
      {"measurement": "Emulsion stability, mL separation, 24 h, Adjuvant", "result": 0, "unit": "mL"},
      {"measurement": "Emulsion stability, mL separation, 24 h, Anionic", "result": 0, "unit": "mL"},
      {"measurement": "Emulsion stability, mL separation, 24 h, Nonionic", "result": 0, "unit": "mL"}
    ]},
    {"smiles": "CC/C=C/CCCCCCCC(=O)OCC[N+](C)(C)C", "note": "[C12-7, C12 DMEA Ester Quat]", "values": [
      {"measurement": "Emulsion stability, mL separation, 1 h, Adjuvant", "result": 0, "unit": "mL"},
      {"measurement": "Emulsion stability, mL separation, 1 h, Anionic", "result": 0, "unit": "mL"},
      {"measurement": "Emulsion stability, mL separation, 1 h, Nonionic", "result": 0, "unit": "mL"},
      {"measurement": "Emulsion stability, mL separation, 24 h, Adjuvant", "result": 0, "unit": "mL"},
      {"measurement": "Emulsion stability, mL separation, 24 h, Anionic", "result": 0, "unit": "mL"},
      {"measurement": "Emulsion stability, mL separation, 24 h, Nonionic", "result": 0, "unit": "mL"}
    ]},
    {"smiles": "C[N+](C)(C)CCOC(=O)CCCCCCC/C=C/CCCCCCCC(=O)OCC[N+](C)(C)C", "note": "[Mix-16, C18 diMEA DiQuat]", "values": [
      {"measurement": "Emulsion stability, mL separation, 1 h, Adjuvant", "result": 0.25, "unit": "mL"},
      {"measurement": "Emulsion stability, mL separation, 1 h, Anionic", "result": 0, "unit": "mL"},
      {"measurement": "Emulsion stability, mL separation, 24 h, Adjuvant", "result": 0.25, "unit": "mL"},
      {"measurement": "Emulsion stability, mL separation, 24 h, Anionic", "result": 0, "unit": "mL"}
    ]}
  ]
}
